Data set [1] concerns A549. Briefly: Cytotoxicity against human A549 cells assessed as reduction in cell viability after 48 hrs by MTT assay. It is filed as functional, cell-based. As to conditions: A549, 48 h.
Data set [2] concerns MRC5. Briefly: Cytotoxicity against human MRC5 cells assessed as reduction in cell viability after 48 hrs by MTT assay. As to conditions: MRC5, 48 h. The data set is classed as cell-based.
In data set [3] the target is T1, Nuclear factor erythroid 2-related factor 2 (Homo sapiens) (UniProt Q16236).
T1 sequence (whole entry): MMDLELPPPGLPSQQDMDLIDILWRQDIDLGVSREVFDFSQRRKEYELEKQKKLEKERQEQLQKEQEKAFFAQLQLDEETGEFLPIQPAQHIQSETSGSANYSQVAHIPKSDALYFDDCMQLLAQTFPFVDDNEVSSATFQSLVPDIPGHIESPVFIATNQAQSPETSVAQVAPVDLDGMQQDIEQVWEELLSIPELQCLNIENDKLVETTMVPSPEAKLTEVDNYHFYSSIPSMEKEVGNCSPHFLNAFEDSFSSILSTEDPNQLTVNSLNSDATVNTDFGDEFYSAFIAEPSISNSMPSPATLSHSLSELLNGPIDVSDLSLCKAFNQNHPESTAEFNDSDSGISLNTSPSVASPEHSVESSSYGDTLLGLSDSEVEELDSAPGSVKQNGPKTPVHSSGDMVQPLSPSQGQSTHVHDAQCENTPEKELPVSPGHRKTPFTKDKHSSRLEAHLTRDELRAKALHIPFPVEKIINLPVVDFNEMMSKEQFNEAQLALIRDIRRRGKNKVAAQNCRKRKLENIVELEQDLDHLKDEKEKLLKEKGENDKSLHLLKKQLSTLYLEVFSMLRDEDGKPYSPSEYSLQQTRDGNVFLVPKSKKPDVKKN
As to the kind of experiment: Activation of NRF2 in human HaCaT cells expressing rat NQO1 assessed as induction of NQO1 expression at 50 nM to 5 uM incubated for 24 hrs by ARE-driven luciferase reporter gene assay. It is filed as cell-based.

Data set [4] relates to HaCaT. Briefly: Toxicity in human HaCaT cells expressing rat NQO1 assessed as reduction in cell viability at 50 uM incubated for 24 hrs by MTT assay. The data set is classed as cell-based.
The test system of data set [5] is HaCaT. As to the kind of experiment: Toxicity in human HaCaT cells expressing rat NQO1 assessed as reduction in cell viability at 500 uM incubated for 24 hrs by MTT assay. It is filed as cell-based.
In data set [6] the test system is A549. Briefly: Cytotoxicity against human A549 cells assessed as reduction in cell viability at 10 uM after 48 hrs by inverted microscopy. It is filed as functional.
The subject of data set [7] is MRC5. As to the kind of experiment: Cytotoxicity against human MRC5 cells assessed as reduction in cell viability at 10 uM after 48 hrs by inverted microscopy. To be noted: mrc5, 48 h. The data set is classed as cell-based.
Data set [8] can be described thus: Cytotoxicity against human MRC5 cells assessed as cell viability at 10 uM after 48 hrs by inverted microscopy. The data set is classed as cell-based. As to conditions: read-out: Activity.

SMILES strings stand for the structures. The source made the active and inactive calls. The rule behind the calls is not given here.

For `CC(O)C(=O)O` (configuration not stated) [LACTIC ACID], the values for the concentration for half-maximal inhibition (IC50) with A549 [1] and with MRC5 [2] were 26.6 µM and 23.9 µM, respectively.
On to `C[S@@+]([O-])CCCCCCN=C=S`, for which, in data set [3], the outcome was Active.
For the compound `CC[S@@+]([O-])CCCCN=C=S` (racemic), the result in data set [3] was Active. Besides, the Activity result with HaCaT [4] and with HaCaT [5] was “Toxic” throughout. The results for the IC50 in the data set with A549 [1] and with MRC5 [2] were 19.8 µM and 40.8 µM, respectively.
Take `CCCC[S@@+]([O-])CCCCN=C=S`: the outcome in data set [3] was Active. In addition, the Activity entry in the data set on HaCaT [4] and in the data set with HaCaT [5] was “Toxic” each time. Also, the values for the IC50 in the data set on A549 [1] and in the data set on MRC5 [2] were 9.77 µM and 17.4 µM, respectively. For the same compound, the “growth inhibition (GI)” value with A549 [6] was “Active”. Besides, the “growth inhibition (GI)” value in the data set with MRC5 [7] is “Non-toxic”. In addition, in data set [8], the viability at 48 h, 10 µM is 90%.
In the case of `C[S@+]([O-])CCCCCN=C=S`, the outcome in data set [3] was Active. Besides, the Activity entry in the data set with HaCaT [4] and in the data set on HaCaT [5] was “Toxic” throughout. Besides, the results for the IC50 with A549 [1] and with MRC5 [2] were 12 µM and 20.2 µM, respectively.
Consider `C[S@@](=O)CCCCN=C=S` [SULFORAPHANE], for which the outcome in data set [3] was Active. Also, the Activity entry in the data set on HaCaT [4] and with HaCaT [5] was “Toxic” in each case. Besides, the 50% inhibitory concentration (IC50) with A549 [1] was 19.6 µM; in the data set with MRC5 [2], 46.6 µM.
As for `C[S@+]([O-])CCCCCCN=C=S`, in data set [3], the result was Active.
In the case of `C[S@@+]([O-])CCCCCN=C=S`, the outcome in data set [3] was Active. Besides, the Activity entry in the data set on HaCaT [4] and in the data set on HaCaT [5] was “Toxic” each time. In addition, the IC50 stood at 9.62 µM in the data set with A549 [1] and 18.5 µM in the data set on MRC5 [2].
